Molecules are shown by their SMILES. Where “and” joins values, the source holds several entries; their conditions need not be identical. Equal values may be shown once. Some results are limits rather than exact numbers.

This assay relates to NCI-H211 complex spheroid viability. Kind of assay: Anticancer human tumor NCI-H211 cell line growth inhibition [LSD1].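 As to all read-outs here: luminescent viability read after seven days of drug exposure.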 To be noted: for viability, T/C: stronger effect = lower value. The source says:
Multicellular complex tumor spheroid response to LSD1 Inhibitor Iadademstat in combination with a variety of drugs and investigational agents in selected tumor cell lines
The current study was undertaken to assess response to LSD1 inhibitors in combination with standard-of-care drugs and investigational agents in solid tumor complex spheroid models as well as in the K-562 leukemia. Complex spheroids include a stromal component modeled by human endothelial cells (HUVEC) and fibroblasts modeled by human mesenchymal stem cells (MSCs). The concentration ranges selected for each drug and investigational agent were based upon clinically achievable concentrations if the clinical Cmax of the agent was known.
Compounds. The drugs and investigational agents used in this study are listed on Table 1. All of the agents used, including staurosporine (NSC755774) and gemcitabine (NSC613327), were obtained from the Developmental Therapeutics Program, NCI. FDA-approved anticancer drugs are available from the NCI at http://dtp.nci.nih.gov/branches/dscb/oncology_drugset_explanation.html. Drugs and investigational agents were >95% pure by proton nuclear magnetic resonance (NMR) and liquid chromatography/mass spectrometry (LC/MS). Stock solutions were prepared at 400x in DMSO, stored at -70 degrees C, and diluted in fresh medium prior to their use. The final concentration of DMSO in cell culture wells never exceeded 0.25% (v/v). The FDA-approved anticancer drug set is available from the Developmental Therapeutics Program at https://dtp.cancer.gov/organization/dscb/obtaining/available_plates.htm. All drugs and investigational agents were tested over a range starting from a high concentration at or near the clinical Cmax and decreasing in half-log increments. If the clinical Cmax for an agent had not been determined, the highest concentration tested was 10 microM.
Cell Lines. The patient-derived cancer cell (PDC) lines: 292921-168-R-J2-PDC, K24384-001-R-PDC, and 521955-158-R2-J5-PDC pancreatic carcinomas, 556581-035-R-J1 ovarian carcinoma, 324938-238-R-J1-PDC, 855422-203-R-J1-PDC and 883617-216-R-J1-PDC urothelial bladder carcinomas, 743489-274-T-PDC renal cell carcinoma, 138582-R-J1 Merkel cell tumor, K60290-347-R-J1 and K57222-313-R-J1-PDC glioblastomas, 653999-131-R-J2-PDC, LG0703-F948-PDC, and 349418-098-R-PDC non-small cell lung carcinomas, 885512-296-R-J2-PDC, 171881-019-R-J1-PDC breast carcinomas and 186277-243-T-J2-PDC and 233499-124-R-J2-PDC colon carcinomas were obtained from the NCI Patient-Derived Models Repository (PDMR, https://pdmr.cancer.gov). The established cell lines NCI/ADR-RES (RRID:CVCL_14520 and OVCAR-5 (RRID:CVCL_1628) ovarian carcinomas, 786-O (RRID:CVCL_1051) and A498 (RRID:CVCL_A498) renal cell carcinoma, NCI-H211 (ATCC, cat. CRL-5824; RRID:CVCL_1529), NCI-H196 (ATCC, cat. CRL-5823, RRID:CVCL_1509), SW 1271 (ATCC, cat. CRL-2177, RRID:CVCL_1716) and NCI-H1876 (ATCC, cat. CRL-5902, RRID:CVCL_1503) small cell lung carcinomas, MDA-MB-231 (RRID:CVCL_0062) and MDA-MB-468 (RRID:CVCL_0419)breast carcinomas (10-12). Pooled donor human umbilical vein endothelial cells (HUVEC, Lonza, cat. CC-2519) and human mesenchymal stem cells (hMSC, Lonza, cat. PT-2501) were purchased from Lonza (Walkersville, MD).
Cell Culture. All cells were maintained in an incubator at 37 degrees C and 5% CO2 with 95% humidity. The PDC lines were cultured according to standard operating procedures established by the NCI PDMR (https://pdmr.cancer.gov). Briefly all PDCs were thawed and cultured in Matrigel-coated flasks prepared with a working solution of 1X Ham's F-12 nutrient mix, without supplementation (Invitrogen, Waltham, MA, cat. 11765054), 100 U/mL penicillin-streptomycin (Invitrogen, cat. 15140122), and 2.5% Matrigel (Corning Inc., Corning, NY, cat. 354248) for the first three passages. […]

Consider `CC(C)c1c(-c2ccccc2)nc2c(C#N)c[nH]n2c1=O`, for which the viability, T/C (commonly the ratio of treated to control) runs as follows: (compound 0.0316 µM) 104% and 81.5%; (compound 0.1 µM) 127% and 88%; (compound 0.316 µM) 103% and 68.7%; (compound 1 µM) 114% and 68.7%; (compound 3.16 µM) 98.9% and 67%; (compound 10 µM) 97.3% and 75.2%. Further, the IC50 (in general, the midpoint of a concentration-inhibition curve) (curve of compound) was greater than 10000 nM.

As to `CC1COCCN1c1cc(C2(S(C)(=N)=O)CC2)nc(-c2ccnc3[nH]ccc23)n1` (stereo not drawn), the viability, T/C is 84.3% and 102% (compound 0.0316 µM); 72.6% and 81.8% (compound 0.1 µM); 49.4% and 63.4% (compound 0.316 µM); 20.4% and 14.6% (compound 1 µM); 4.23% and 5.02% (compound 3.16 µM); 2.56% and 2.74% (compound 10 µM). Moreover, the IC50 (curve of compound) is 299 nM and 405 nM.

As to `COc1ccc([C@@H](O)c2cc(-c3ncnc4cc(N5CCOCC5)ccc34)c(F)cc2Cl)nn1`, the viability, T/C is, setting by setting: (compound 0.0316 µM) 108% and 89.2%; (compound 0.1 µM) 96.5% and 86.3%; (compound 0.316 µM) 93.7% and 94.2%; (compound 1 µM) 103% and 87.4%; (compound 3.16 µM) 70.8% and 76.6%; (compound 10 µM) 10.4% and 8.12%. Moreover, under “curve of compound”, the IC50 is 4700 nM and 4950 nM.

With `NC1CCC(NC2CC2c2ccccc2)CC1` (stereo not drawn), the viability, T/C is 74.9% [middle of 4 runs] (compound 0.316 µM) and 36.1% [middle of 23 runs] (compound 10 µM).

Consider `Nc1ncn(C2CC(O)C(CO)O2)c(=O)n1` (stereo not drawn) + NC1CC1c1ccc(-c2cccc(O)c2)cc1, for which the IC50 is less than 3.16 nM (curve of first compound, second compound 0.1 µM); less than 3.16 nM (curve of first compound, second compound 0.316 µM); less than 3.16 nM (curve of first compound, second compound 1 µM); less than 3.16 nM (curve of first compound, second compound 3.16 µM); less than 3.16 nM (curve of first compound, second compound 10 µM). The viability, T/C was 23.1% (second compound 0.1 µM, first compound 0.00316 µM); 11.9% (second compound 0.1 µM, first compound 0.01 µM); 5.65% (second compound 0.1 µM, first compound 0.0316 µM); 3.94% (second compound 0.1 µM, first compound 0.1 µM); 3.2% (second compound 0.1 µM, first compound 0.316 µM); 4.03% (second compound 0.1 µM, first compound 1 µM). Moreover, the viability, T/C is, setting by setting: (second compound 0.316 µM, first compound 0.00316 µM) 18.7%; (second compound 0.316 µM, first compound 0.01 µM) 9.82%; (second compound 0.316 µM, first compound 0.0316 µM) 6.26%; (second compound 0.316 µM, first compound 0.1 µM) 4.33%; (second compound 0.316 µM, first compound 0.316 µM) 3.7%; (second compound 0.316 µM, first compound 1 µM) 4.51%. The viability, T/C is 17.9% (second compound 1 µM, first compound 0.00316 µM); 10.6% (second compound 1 µM, first compound 0.01 µM); 5.51% (second compound 1 µM, first compound 0.0316 µM); 4% (second compound 1 µM, first compound 0.1 µM); 4.16% (second compound 1 µM, first compound 0.316 µM); 4.12% (second compound 1 µM, first compound 1 µM). The viability, T/C by setting is: (second compound 3.16 µM, first compound 0.00316 µM) 24.6%; (second compound 3.16 µM, first compound 0.01 µM) 13.7%; (second compound 3.16 µM, first compound 0.0316 µM) 6.51%; (second compound 3.16 µM, first compound 0.1 µM) 4.45%; (second compound 3.16 µM, first compound 0.316 µM) 3.03%; (second compound 3.16 µM, first compound 1 µM) 4.93%. Moreover, the viability, T/C is 22.7% (second compound 10 µM, first compound 0.00316 µM); 17.1% (second compound 10 µM, first compound 0.01 µM); 9.21% (second compound 10 µM, first compound 0.0316 µM); 5.28% (second compound 10 µM, first compound 0.1 µM); 3.35% (second compound 10 µM, first compound 0.316 µM); 3.79% (second compound 10 µM, first compound 1 µM).

(Values after PubChem BioAssay AID1918940 (Molecular Pharmacology Branch, DTP, NCI, 2023).)
